In patent US20120270935A1, “FORMULATIONS” (priority 2009, published 2012):
In brackets after ≈: the same amount, converted by molar mass. Read-outs that look alike come from different tables or passages of the source.

How the values were obtained:
P. acnes NCTC 737 [1] = experiment: Disc diffusion assay (DDA); format: cell-based, Propionibacterium acnes; details: 200 μg compound per disc, DMSO
Method: (§1) The first test micro-organism used was Propionibacterium acnes NCTC 737. This is a propionibacterial strain and is the type strain of the […]; it is fully susceptible to antibiotics.
(§2) The propionibacteria were cultured and maintained on Wilkins-Chalgren Anaerobe Medium (agar and broth) at pH 6.0; all cultures were incubated anaerobically at 37° C. for 72 hours.
This is an internationally recognised standard method for qualitatively assessing the antimicrobial activity of a compound.
A sterile paper disc was impregnated with a sample of the test compound in a suitable solvent and 30 minutes allowed for the solvents to evaporate (where possible). The disc was then placed on an agar plate onto which the test micro-organism had been inoculated. The plate was then incubated under the conditions described above, following which it was examined visually for signs of microbial growth. If the test compound had antimicrobial activity, a circular zone of no growth would be obtained around the disc. The diameter of this zone of “inhibition” was measured using a ProtoCOL™ automated zone sizer (Synbiosis, Cambridge, UK). In general, a greater diameter and/or area of the zone of inhibition indicates a greater antimicrobial activity in the relevant test compound, although other factors such as test compound mobility through the agar gel may also influence the result.
(§3) DDA assays, as described above, were carried out using as the test formulation the gel prepared in Example 2B above. Also tested was the Example 2B gel minus the Klucel™ thickener, which was also subjected to MIC and MBC assays. For the DDAs, which were performed in triplicate, 100 μl of the relevant formulation was loaded onto each disc, and zones of inhibition were recorded after 3 days' anaerobic incubation at 37° C. The MIC and MBC tests were performed in duplicate and the results recorded after 3 days and 7 days respectively, post-subculture onto drug-free medium. […]

P. acnes NCTC 737 [2] = experiment: Minimum bactericidal concentration (MBC) assay; format: cell-based, Propionibacterium acnes; details: compound in DMSO, triplicate
Method: as §1, §2
This assay, normally carried out after an MIC assay, determines the minimum concentration of a compound that is lethal to the micro-organism being tested.
These samples were then individually sub-cultured on antibiotic-free agar medium, under the incubation conditions described above. Following incubation they were examined visually for microbial growth.
DDA assays, as described above, were carried out using as the test formulation the gel prepared in Example 2B above. Also tested was the Example 2B gel minus the Klucel™ thickener, which was also subjected to MIC and MBC assays. For the DDAs, which were performed in triplicate, 100 μl of the relevant formulation was loaded onto each disc, and zones of inhibition were recorded after 3 days' anaerobic incubation at 37° C. The MIC and MBC tests were performed in duplicate and the results recorded after 3 days and 7 days respectively, post-subculture onto drug-free medium.
The compounds copper (II) usnate (Just for Today Ltd), sodium usnate (Yick-Vic Chemicals) and usnic acid (Sigma-Aldrich) were tested against P. acnes NCTC 737, using MIC, MBC and DDA assays as described above. For copper usnate and usnic acid, supplemented DDA assays were also carried out. DMSO was used as the solvent for all three test compounds. For the DDAs, 200 μg of the relevant test compound was loaded onto each disc. The MIC and MBC assays were conducted in triplicate, as were the DDAs for copper usnate.

P. acnes NCTC 737 [3] = experiment: Minimum inhibitory concentration (MIC) assay, broth microtitre; format: cell-based, Propionibacterium acnes; details: compound in DMSO, triplicate
Method: as §1, §2
This is a standard international method for quantitatively assessing the antimicrobial activity of a compound in a liquid medium. The method used a sterile 96-well microtitre plate, capable of holding about 200 μl of liquid per well. The wells contained liquid culture medium and ranges of decreasing concentrations of the relevant test compound in doubling dilutions (eg 1000, 500, 250, 125 . . . μg/ml, etc. down to 0.49 μg/ml). The culture medium was as described above.
The wells were inoculated with a liquid suspension of freshly grown micro-organism and incubated under the conditions described above. After incubation, the microtitre plate was examined visually (with the aid of a light box) for cloudiness in each well, which would indicate microbial growth. The MIC value was recorded as the lowest concentration of test compound required to inhibit microbial growth, ie the lowest concentration for which the liquid in the well remained clear.
The assays included both negative (culture medium with no micro-organisms) and positive (culture medium plus diluting solvent plus micro-organism) controls.
as §3

S. mutans ATCC 25175 = experiment: MBC assay; format: cell-based, Streptococcus mutans; details: Wilkins-Chalgren broth pH 7 (±0.2)
Text: (a) staphylococci. The Staphylococcus aureus strain used was ATCC 29213. S. aureus and other staphylococci are common causes of a wide range of skin, skin structure and wound infections; S. aureus is also known to exacerbate eczema. The ATCC 29213 strain is known to be susceptible to beta-lactam antibiotics such as methicillin. The Staphylococcus epidermidis strain used was NCTC 11047. Staph. epidermidis forms part of the resident flora of skin and is an opportunistic pathogen which can cause biofilms to grow for instance on plastic surgical implants such as catheters. Unless otherwise stated, the staphylococci were cultured and maintained on Mueller-Hinton Medium (agar and broth) at pH 7.2; cultures were incubated aerobically at 37° C. for 19-20 hours, at pH 7 (±0.2). (b) C. striatum NCTC 764. Corynebacterium striatum is closely related to organisms (aerobic diphtheroids of the genus Corynebacterium) that cause body odour. It was cultured and maintained on Mueller-Hinton medium (agar and broth). All cultures were incubated aerobically at 37° C. for 72 hours, at pH 7 (±0.2). (c) streptococci. The strains tested were S. mutans ATCC 25175 and S. pyogenes ATCC 12344. S. mutans is a Gram-positive, microaerophilic bacterium which plays a significant role in dental caries and in infective endocarditis. Streptococcus pyogenes is associated with skin, soft tissue, burn and wound infections. […]

**Q.** For CC(=O)c1c([O-])c(C)c([O-])c2c1OC1=CC(=O)C(C(C)=O)C(=O)C12C.[Cu+2] (centres unmarked) [Copper usnate, copper (II) usnate], which “DDA zone diameter, unsupplemented medium” value (P. acnes NCTC 737 [1]) is on record?
**A.** 46.7 ± 0.4 mm

**Q.** And the MBC (P. acnes NCTC 737 [2])?
**A.** 1.95 µg/mL

**Q.** What about the MIC (P. acnes NCTC 737 [3]) of the same molecule?
**A.** 0.49 µg/mL

**Q.** What about the MBC (S. mutans ATCC 25175) of the same molecule?
**A.** 31.25 µg/mL

**Q.** For CC(=O)c1c(O)c(C)c(O)c2c1OC1=CC(=O)C(C(C)=O)C(=O)C12C (centres unmarked) [Usnic acid, 2,6-diacetyl-7,9-dihydroxy-8,9b-dimethyl-1,3(2H,9bh)-dibenzofurandione], which zone of inhibition at 200 µg/disc (P. acnes NCTC 737 [1]; Cutibacterium acnes, NCTC737, read-out: DDA zone diameter, unsupplemented medium) is on record?
**A.** 23.9 mm

**Q.** What about the MBC (P. acnes NCTC 737 [2]; Cutibacterium acnes, NCTC737, read-out: MBC) of the same molecule?
**A.** 31.2 µg/mL (≈ 90.8 µM)

**Q.** What about the MIC (P. acnes NCTC 737 [3]; Cutibacterium acnes, NCTC737, read-out: MIC) of the same molecule?
**A.** 0.49 µg/mL (≈ 1.42 µM)

**Q.** What about the MBC (S. mutans ATCC 25175; Streptococcus mutans, ATCC25175, read-out: MBC) of the same molecule?
**A.** 125 µg/mL (≈ 363 µM)
